Test results from patent publication US11066414B2, “Cot modulators and methods of use thereof” (Gilead Sciences, Inc., priority 2015, dated 2021).
Where two headings read alike, the source gives them in different places.

Assays:
[1] = system: TNFα; assay: Cot Monocyte TNFα Cell Based Assay
[2] = biological target: Human Cot (Homo sapiens (Human), UniProt P41279); assay: High Throughput Cot Biochemical Assay
[3] = Homo sapiens, Monocyte, read-out: EC50 TNF, LPS-stimulated human monocytes, TNFα
[4] = IC50 HTRF, Cot HTRF (TR-FRET) biochemical assay
[5] = Homo sapiens, Monocyte, read-out: EC50 TNF, LPS-stimulated human monocytes, TNFα TR-FRET
[6] = IC50 HTRF, Cot HTRF (TR-FRET KinEASE) biochemical assay, 400 μM ATP
[7] = read-out: EC50 TNF, LPS-stimulated human monocytes, TNFα
[8] = read-out: IC50 HTRF, Cot HTRF (TR-FRET) biochemical assay
[9] = read-out: EC50 TNF, LPS-stimulated human monocytes, TNFα TR-FRET
[10] = read-out: IC50 HTRF, Cot HTRF (TR-FRET KinEASE) biochemical assay, 400 μM ATP

Human Cot, sequence (P41279 30-397): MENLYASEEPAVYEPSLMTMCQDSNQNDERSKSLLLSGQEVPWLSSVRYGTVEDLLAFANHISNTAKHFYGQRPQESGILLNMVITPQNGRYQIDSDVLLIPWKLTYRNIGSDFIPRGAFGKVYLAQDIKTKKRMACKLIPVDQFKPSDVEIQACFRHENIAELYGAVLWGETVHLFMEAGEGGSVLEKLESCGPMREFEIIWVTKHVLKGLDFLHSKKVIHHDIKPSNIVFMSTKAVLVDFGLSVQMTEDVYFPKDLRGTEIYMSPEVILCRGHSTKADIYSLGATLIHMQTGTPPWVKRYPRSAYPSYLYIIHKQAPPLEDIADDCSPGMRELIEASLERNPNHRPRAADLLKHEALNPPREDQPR

| EC50 [1, 3] | IC50 [2, 4] | SMILES | also measured |
| --- | --- | --- | --- |
| 65 nM | 1 nM | CC(C)(C)CNc1c(C#N)cnc2c(C#N)cc(N[C@H](c3cn(C4CC4)nn3)c3csc4c3CCN(C3COC3)C4)cc12 [Example 433, (S)-6-(((1-cyclopropyl-1H-1,2,3-triazol-4-yl)(6-(oxetan-3-yl)-4,5,6,7-tetrahydrothieno[2,3-c]pyridin-3-yl)methyl)amino)-4-(neopentylamino)-quinoline-3,8-dicarbonitrile] | – |
| 41 nM | 2 nM | Cc1nc2cccc([C@H](Nc3cc(C#N)c4ncc(C#N)c(NCC(C)(C)C)c4c3)c3cn(C4CC4)nn3)c2s1 [Example 427, (S)-6-(((1-cyclopropyl-1H-1,2,3-triazol-4-yl)(2-methylbenzo[d]thiazol-7-yl)methyl)amino)-4-(neopentylamino)-quinoline-3,8-dicarbonitrile] | – |
| – | – | Cn1ccc2c([C@H](Nc3cc(C#N)c4ncc(C#N)c(NCC(C)(C)C(F)(F)F)c4c3)c3cn(C4(C)CC4)nn3)cccc2c1=O [Example 884, (S)-6-(((2-methyl-1-oxo-1,2-dihydroisoquinolin-5-yl)(1-(1-methylcyclopropyl)-1H-1,2,3-triazol-4-yl)methyl)amino)-4-((3,3,3-trifluoro-2,2-dimethylpropyl)amino)q uin oline-3,8-dicarbonitrile] | EC50 [1, 5]: 19 nM; IC50 [2, 6]: 1 nM |
| – | – | CC(C)(C)CNc1c(C#N)cnc2c(Cl)cc(N[C@H](c3cn(C45CC(C4)C5)nn3)c3ccc(F)c4ncccc34)cc12 [Example 920, (S)-6-(((1-(bicyclo[1.1.1]pentan-1-yl)-1H-1,2,3-triazol-4-yl)(8-fluoroquinolin-5-yl)methyl)amino)-8-chloro-4-(neopentylamino)quinoline-3-carbonitrile] | EC50 [1, 5]: 28 nM; IC50 [2, 6]: 3 nM |
| 88 nM | 1 nM | CC(C)(C)CNc1c(C#N)cnc2c(Br)cc(N[C@H](c3cn(C4(C(N)=O)CC4)nn3)c3cccc4ncsc34)cc12 [Example 408, (S)-1-(4-(benzo[d]thiazol-7-yl((8-bromo-3-cyano-4-(neopentylamino)-quinolin-6-yl)amino)methyl)-1H-1,2,3-triazol-1-yl)cyclopropane-1-carboxamide] | – |
| 100 nM | 8 nM | Cc1ccc([C@H](Nc2cc(Cl)c3ncc(C#N)c(NCC(C)(C)C)c3c2)c2cn(C3(C(F)F)CC3)nn2)c(C)n1 [Example 717, (S)-8-chloro-6-(((1-(1-(difluoromethyl)cyclopropyl)-1H-1,2,3-triazol-4-yl)(2,6-dimethylpyridin-3-yl)methyl)amino)-4-(neopentylamino)quinoline-3-carbonitrile] | – |
| – | – | C[C@@H](CF)n1cc([C@@H](Nc2cc(Cl)c3ncc(C#N)c(NCC(C)(C)C(F)(F)F)c3c2)c2cccc3c(=O)n(C)ccc23)nn1 [Example 784, 8-chloro-6-(((S)-(1-((S)-1-fluoropropan-2-yl)-1H-1,2,3-triazol-4-yl)(2-methyl-1-oxo-1,2-dihydroiso-quinolin-5-yl)methyl)amino)-4-((3,3,3-trifluoro-2,2-dimethylpropyl)amino)quinoline-3-carbonitrile] | EC50 [1, 7]: 51 nM; IC50 [2, 8]: 3 nM |
| 62 nM | 3 nM | Cc1nc(F)ccc1[C@H](Nc1cc(Cl)c2ncc(C#N)c(NCC(C)(C)C)c2c1)c1nnn(C2CC2)c1F [Example 663, (S)-8-chloro-6-(((1-cyclopropyl-5-fluoro-1H-1,2,3-triazol-4-yl)(6-fluoro-2-methylpyridin-3-yl)methyl)amino)-4-(neopentylamino)quinoline-3-carbonitrile] | – |
| – | – | COc1nccc2c([C@H](Nc3cc(C#N)c4ncc(C#N)c(NCC(C)(C)C)c4c3)c3cn(C4(C(F)(F)F)CC4)nn3)cccc12 [Example 812, (S)-6-(((1-methoxylsoquinolin-5-yl)(1-(1-(trifluoromethyl)cyclopropyl)-1H-1,2,3-triazol-4-yl)methyl)amino)-4-(neopentylamino)quinoline-3,8-dicarbonitrile] | EC50 [1, 9]: 68 nM; IC50 [2, 10]: 5 nM |
| – | – | COc1nccc2c([C@H](Nc3cc(Cl)c4ncc(C#N)c(NCC(C)(C)C)c4c3)c3cn(C(CF)CF)nn3)cccc12 [Example 933, (S)-8-chloro-6-(((1-(1,3-difluoropropan-2-yl)-1H-1,2,3-triazol-4-yl)(1-methoxylsoquinolin-5-yl)methyl)amino)-4-(neopentylamino)quinoline-3-carbonitrile] | EC50 [1, 9]: 247 nM; IC50 [2, 10]: 29 nM |
| 336 nM | 5 nM | CCN1CCC(n2cc(C(Nc3cc(Cl)c4ncc(C#N)c(Nc5ccc(F)c(Cl)c5)c4c3)c3cncnc3)nn2)CC1 (centres unmarked) [Example 366, 8-chloro-4-((3-chloro-4-fluorophenyl)amino)-6-(((1-(1-ethylpiperidin-4-yl)-1H-1,2,3-triazol-4-yl)(pyrimidin-5-yl)methyl)amino)-quinoline-3-carbonitrile] | – |
| 528 nM | 8 nM | CC(C)(C)CNc1c(C#N)cnc2c(Cl)cc(N[C@@H](c3cccnc3)c3cn(C4(C(F)F)CC4)nn3)cc12 [Example 506, (S)-8-chloro-6-(((1-(1-(difluoromethyl)-cyclopropyl)-1H-1,2,3-triazol-4-yl)(pyridin-3-yl)methyl)amino)-4-(neopentylamino)quinoline-3-carbonitrile] | – |
| 187 nM | 17 nM | CC(C)(C)CNc1c(C#N)cnc2c(Cl)cc(N[C@H](c3cn(C4(C(F)(F)F)CC4)nn3)c3ccc(Cl)c4ncccc34)cc12 [Example 709, (S)-8-chloro-6-(((8-chloroquinolin-5-yl)(1-(1-(trifluoromethyl)cyclopropyl)-1H-1,2,3-triazol-4-yl)methyl)amino)-4-(neopentylamino)quinoline-3-carbonitrile] | – |
| 73 nM | 3 nM | CC[C@@H](Nc1c(C#N)cnc2c(Cl)cc(N[C@@H](c3cccnc3)c3cn(CC#N)nn3)cc12)c1ccccc1 [Example 175, 8-chloro-6-(((S)-(1-(cyanomethyl)-1H-1,2,3-triazol-4-yl)(pyridin-3-yl)methyl)amino)-4-(((R)-1-phenylpropyl)amino)quinoline-3-carbonitrile] | – |
| – | – | CC[C@@H](Nc1c(C#N)cnc2c(Cl)cc(NC(c3cn(C4CC4)nn3)c3cccnc3Cl)cc12)c1ccccc1 (stereo partly drawn) [Example 124, 8-chloro-6-(((2-chloropyridin-3-yl)(1-cyclopropyl-1H-1,2,3-triazol-4-yl)methyl-d)amino)-4-(((R)-1-phenylpropyl)amino)quinolme-3-carbonitrile] | EC50 [1, 7]: 376 nM; IC50 [2, 8]: 8 nM |
| – | – | CC(C)(C)CNc1c(C#N)cnc2c(Cl)cc(N[C@H](c3cn([C@@H]4C[C@@H]4F)nn3)c3cccc4ncccc34)cc12 [Example 692, 8-chloro-6-(((SH l-((lR,2S)-2-fluorocyclopropyl)-1H-1,2,3-triazol-4-yl)(quinolin-5-yl)methyl)amino)-4-(neopentylamino)quinoline-3-carbonitrile] | EC50 [1, 7]: 38 nM; IC50 [2, 8]: 3 nM |
| 32 nM | 2 nM | CC(C)(C)CNc1c(C#N)cnc2c(C#N)cc(N[C@H](c3cn(C4(C)CC4)nn3)c3cccc4cnccc34)cc12 [Example 581, (S)-6-((isoquinolin-5-yl(1-(1-methylcyclo-propyl)-1H-1,2,3-triazol-4-yl)methyl)amino)-4-(neopentylamino)quinoline-3,8-dicarbonitrile] | – |
| 130 nM | 2 nM | [2H][C@](Nc1cc(Cl)c2ncc(C#N)c(Nc3cccc(Cl)c3OC)c2c1)(c1ccc(F)nc1)c1cn(C2CC2)nn1 [Example 94, (S)-8-chloro-4-((3-chloro-2-methoxyphenyl)amino)-6-(((1-cyclopropyl-1H-1,2,3-triazol-4-yl)(6-fluoropyridin-3-yl)methyl-d)amino)quinoline-3-carbonitrile] | – |
| 826 nM | 79 nM | COc1cc(N[C@H](c2cn(C3(C#N)CC3)nn2)c2ccc(F)nc2C)cc2c(NCC(C)(C)C)c(C#N)cnc12 [Example 596, (S)-6-(((1-(1-cyanocyclopropyl)-1H-1,2,3-triazol-4-yl)(6-fluoro-2-methylpyridin-3-yl)methyl)amino)-8-methoxy-4-(neopentylamino)quinoline-3-carbonitrile] | – |
| 78 nM | 3 nM | [2H]C(Nc1cc(Cl)c2ncc(C#N)c(NCC(C)(C)C)c2c1)(c1cn(C2CC2)nn1)c1ccc(Cl)nc1C (centres unmarked) [Example 125, 8-chloro-6-(((6-chloro-2-methylpyridin-3-yl)(1-cyclopropyl-1H-1,2,3-triazol-4-yl)methyl-d)amino)-4-(neopentylamino)quinoline-3-carbonitrile] | – |
| – | – | Cc1nc(F)ccc1[C@H](Nc1cc(Cl)c2ncc(C#N)c(NCC(C)(C)C)c2c1)c1nnn(C2CC2)c1I [Example 643, (S)-8-chloro-6-(((1-cyclopropyl-S-iodo-1H-1,2,3-triazol-4-yl)(6-lluoro-2-methylpyridin-3-yl)methyl)amino)-4-(neopentylamino)quinoline-3-carbonitrile] | EC50 [1, 7]: 1000 nM; IC50 [2, 8]: 5 nM |

| SMILES | EC50 [1, 3] | IC50 [2, 4] | also measured |
| --- | --- | --- | --- |
| [2H]C([2H])(Nc1c(C#N)cnc2c(Cl)cc(N[C@H](c3cn(C4(C(F)F)CC4)nn3)c3ccc(F)nc3C)cc12)C(C)(C)C [Example 501, (S)-8-chloro-6-(((1-(1-(difluoromethyl)-cyclopropyl)-1H-1,2,3-triazol-4-yl)(6-fluoro-2-methylpyridin-3-yl)methyl)amino)-4-((2,2-dimethylpropyl-1,1-d2)amino)-quinoline-3-carbonitrile] | 55 nM | 3 nM | – |
